Assay results from US20230021483A1, “[…] […] METHOD AND CLASSIFICATION OF PHARMACEUTICAL COMPONENTS BY USING TRANSCRIPTOMES” (National Institutes of Biomedical Innovation, Health and …, priority 2016, published 2023).

System: preferentially upregulated genes in LV, SP, LN
Experiment: Z-score-based differential gene expression analysis (adjuvant group- or adjuvant-associated genes, 40 module mapping, TargetMine annotation)
Type: in vivo, C57BL/6 mice
Details: for Rnf213 1455500_at (Group G1, Modules 20) / Rsad2 1436058_at (Group G1, Modules 20) / Shisa5 1423986_a_at (Group G1, Modules 20) / Shisa5 1437503_a_at (Group G1, Modules 20) / Stat1 1450033_a_at (Group G1, Modules 20) / Stat1 1450034_at (Group G1, Modules 20) / Tdrd7 1426716_at (Group G1, Modules 20) / Tor1aip2 1418115_s_at (Group G1, Modules 20) / Tor1aip2 1418116_at (Group G1, Modules 20) / Tor1aip2 1435526_at (Group G1, Modules 20) / Trim12a 1437432_a_at (Group G1, Modules 20) / Uba7 1426970_a_at (Group G1, Modules 20) / Adar 1425405_a_at (Group G1, Modules 20) / Adar 1434268_at (Group G1, Modules 20) / Ddx58 1436562_at (Group G1, Modules 20) / Ddx58 1456890_at (Group G1, Modules 20) / Eif2ak2 1422005_at (Group G1, Modules 20) / G3bp2 1421323_a_at (Group G1, Modules 20) / Gm9706///Isg15 1431591_s_at (Group G1, Modules 20) / H2-T10///H2-T22///H2-T9 1449875_s_at (Group G1, Modules 20) / Ifih1 1426276_at (Group G1, Modules 20) / Ifit1 1450783_at (Group G1, Modules 20) / Ifit3 1449025_at (Group G1, Modules 20) / Irf7 1417244_a_at (Group G1, Modules 20) / Irgm1 1418825_at (Group G1, Modules 20) / Mndal 1426906_at (Group G1, Modules 20) / Pml 1448757_at (Group G1, Modules 20) / Pml 1456103_at (Group G1, Modules 20): ID, LV
In short: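 Gene groups for each organ were built from combined z-score cutoffs across adjuvants, ranging from z>1 to z>3. Scores came from fold changes standardized per gene over the whole organ data set, with the three replicate z-scores added per adjuvant; sums above 3 marked preferential expression.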

Nc1nc2c(ncn2[C@@H]2O[C@@H]3COP(=O)(O)O[C@H]4[C@@H](O)[C@H](n5cnc6c(N)ncnc65)O[C@@H]4COP(=O)(O)O[C@@H]2[C@@H]3O)c(=O)[nH]1 [cGAMP, Cyclic [G(2′,5′)pA(3′,5′)p]]
Rnf213 1455500_at (Group G1, Modules 20) (sample x1): 2.58
Rsad2 1436058_at (Group G1, Modules 20) (sample x1): 2.08
Shisa5 1423986_a_at (Group G1, Modules 20) (sample x1): 1.7
Shisa5 1437503_a_at (Group G1, Modules 20) (sample x1): 1.57
Stat1 1450033_a_at (Group G1, Modules 20) (sample x1): 3.11
Stat1 1450034_at (Group G1, Modules 20) (sample x1): 2.46
Tdrd7 1426716_at (Group G1, Modules 20) (sample x1): 2.18
Tor1aip2 1418115_s_at (Group G1, Modules 20) (sample x1): 2.9
Tor1aip2 1418116_at (Group G1, Modules 20) (sample x1): 2.41
Tor1aip2 1435526_at (Group G1, Modules 20) (sample x1): 2.32
Trim12a 1437432_a_at (Group G1, Modules 20) (sample x1): 2.07
Uba7 1426970_a_at (Group G1, Modules 20) (sample x1): 2.06
Adar 1425405_a_at (Group G1, Modules 20) (sample x2): 2.38
Adar 1434268_at (Group G1, Modules 20) (sample x2): 1.71
Ddx58 1436562_at (Group G1, Modules 20) (sample x2): 2.13
Ddx58 1456890_at (Group G1, Modules 20) (sample x2): 2.28
Eif2ak2 1422005_at (Group G1, Modules 20) (sample x2): 2.21
G3bp2 1421323_a_at (Group G1, Modules 20) (sample x2): 2.6
Gm9706///Isg15 1431591_s_at (Group G1, Modules 20) (sample x2): 1.62
H2-T10///H2-T22///H2-T9 1449875_s_at (Group G1, Modules 20) (sample x2): 1.8
Ifih1 1426276_at (Group G1, Modules 20) (sample x2): 1.62
Ifit1 1450783_at (Group G1, Modules 20) (sample x2): 2.63
Ifit3 1449025_at (Group G1, Modules 20) (sample x2): 1.95
Irf7 1417244_a_at (Group G1, Modules 20) (sample x2): 1.62
Irgm1 1418825_at (Group G1, Modules 20) (sample x2): 2.09
Mndal 1426906_at (Group G1, Modules 20) (sample x2): 2.11
Pml 1448757_at (Group G1, Modules 20) (sample x2): 2.02
Pml 1456103_at (Group G1, Modules 20) (sample x2): 1.48
Rnf213 1455500_at (Group G1, Modules 20) (sample x2): 2.34
Rsad2 1436058_at (Group G1, Modules 20) (sample x2): 1.89
Shisa5 1423986_a_at (Group G1, Modules 20) (sample x2): 1.43
Shisa5 1437503_a_at (Group G1, Modules 20) (sample x2): 1.63
Stat1 1450033_a_at (Group G1, Modules 20) (sample x2): 2.52
Stat1 1450034_at (Group G1, Modules 20) (sample x2): 1.97
Tdrd7 1426716_at (Group G1, Modules 20) (sample x2): 2.34
Tor1aip2 1418115_s_at (Group G1, Modules 20) (sample x2): 2.68
Tor1aip2 1418116_at (Group G1, Modules 20) (sample x2): 2.58
Tor1aip2 1435526_at (Group G1, Modules 20) (sample x2): 2.28
Trim12a 1437432_a_at (Group G1, Modules 20) (sample x2): 1.46
Uba7 1426970_a_at (Group G1, Modules 20) (sample x2): 1.28
Adar 1425405_a_at (Group G1, Modules 20) (sample x3): 2.37
Adar 1434268_at (Group G1, Modules 20) (sample x3): 1.8
Ddx58 1436562_at (Group G1, Modules 20) (sample x3): 2.6
Ddx58 1456890_at (Group G1, Modules 20) (sample x3): 2.38
Eif2ak2 1422005_at (Group G1, Modules 20) (sample x3): 2.73
G3bp2 1421323_a_at (Group G1, Modules 20) (sample x3): 2.43
Gm9706///Isg15 1431591_s_at (Group G1, Modules 20) (sample x3): 1.73
H2-T10///H2-T22///H2-T9 1449875_s_at (Group G1, Modules 20) (sample x3): 2.45
Ifih1 1426276_at (Group G1, Modules 20) (sample x3): 1.66
Ifit1 1450783_at (Group G1, Modules 20) (sample x3): 2.63
Ifit3 1449025_at (Group G1, Modules 20) (sample x3): 2.06
Irf7 1417244_a_at (Group G1, Modules 20) (sample x3): 1.62
Irgm1 1418825_at (Group G1, Modules 20) (sample x3): 2.14
Mndal 1426906_at (Group G1, Modules 20) (sample x3): 2.19
Pml 1448757_at (Group G1, Modules 20) (sample x3): 2.49
Pml 1456103_at (Group G1, Modules 20) (sample x3): 1.62
Rnf213 1455500_at (Group G1, Modules 20) (sample x3): 2.18
Rsad2 1436058_at (Group G1, Modules 20) (sample x3): 1.75
Shisa5 1423986_a_at (Group G1, Modules 20) (sample x3): 2.36
Shisa5 1437503_a_at (Group G1, Modules 20) (sample x3): 2.09
Stat1 1450033_a_at (Group G1, Modules 20) (sample x3): 2.85
Stat1 1450034_at (Group G1, Modules 20) (sample x3): 2.26
Tdrd7 1426716_at (Group G1, Modules 20) (sample x3): 2.5
Tor1aip2 1418115_s_at (Group G1, Modules 20) (sample x3): 2.71
Tor1aip2 1418116_at (Group G1, Modules 20) (sample x3): 2.68
Tor1aip2 1435526_at (Group G1, Modules 20) (sample x3): 2.32
Trim12a 1437432_a_at (Group G1, Modules 20) (sample x3): 1.61
Uba7 1426970_a_at (Group G1, Modules 20) (sample x3): 1.91
adjuvant group-associated biological features (z-score selected genes, TargetMine and IPA upstream cytokine analyses): strongly associated with type I and type II interferon responses
